Experimental data taken from patent publication US9321722B2, “Bis-indolic derivatives, their uses in particular as antibacterials” (UNIVERSITE JOSEPH FOURIER, priority 2011, dated 2016).
≈ marks a conversion by molar mass, not a printed value.

Legend:
Assay in all cases: MIC microdilution (Table I-1)
[1] = tested on: S. aureus ATCC 106414 (VISA); type: cell-based, Staphylococcus aureus; conditions: Staphylococcus aureus, read after 18 hours, read-out: MIC
Description: (§1) The microdilution method recommended by the Clinical and Laboratory Standard Institute [M07-A8, Vol. 29, N^o 2] was used. The activity of indolic compounds was tested against 29 bacterial strains belonging to 17 different species and 12 different genera (Staphylococcus, Streptococcus, Enterococcus, Listeria, Bacillus, Haemophilus, Escherichia, Klebsiella, Enterobacter, Serratia, Pseudomonas, and Acinetobacter). Bacterial inocula were prepared in Mueller Hinton broth (MH2, bioMerieux, Marcy L'Etoile, France), supplemented with 10% sheep blood for fastidious species (i.e., Streptococcus pneumoniae and Haemophilus influenzae). They were dispensed in 96 well microtiter plates (5×10^5 CFU/ml of final inoculum). Indolic compounds were added to the wells as to obtain two-fold serial concentrations (0.50-128 mg/L of final concentrations). Plates were incubated at 37° C. in ambient air, or at 37° C. in 5% CO2 enriched atmosphere for fastidious species. […] Drug-free cultures served as growth controls. Cultures receiving gentamicin, ciprofloxacin or cefotaxime served as positive controls.

S. aureus ATCC 29213 = type: cell-based, Staphylococcus aureus; conditions: Staphylococcus aureus, ATCC29213, read after 18 hours, read-out: MIC
Description: as §1

[2] = tested on: S. aureus ATCC 33592 (MRSA); type: cell-based, Staphylococcus aureus; conditions: Staphylococcus aureus, read after 18 hours, read-out: MIC
Description: as §1

S. aureus ATCC 6538 = type: cell-based, Staphylococcus aureus; conditions: Staphylococcus aureus, ATCC6538, read after 18 hours, read-out: MIC
Description: as §1

S. aureus ATCC 9144 = type: cell-based, Staphylococcus aureus; conditions: Staphylococcus aureus, ATCC9144, read after 18 hours, read-out: MIC
Description: as §1

S. aureus CIP 103428 = type: cell-based, Staphylococcus aureus; conditions: Staphylococcus aureus, CIP103428, read after 18 hours, read-out: MIC
Description: as §1

[3] = tested on: S. aureus CIP 65.25 (MRSA); type: cell-based, Staphylococcus aureus; conditions: Staphylococcus aureus, read after 18 hours, read-out: MIC
Description: as §1

S. aureus CIP 65.6 = type: cell-based, Staphylococcus aureus; conditions: Staphylococcus aureus, CIP65, read after 18 hours, read-out: MIC
Description: as §1

S. aureus SA-1199B = type: cell-based, Staphylococcus aureus; conditions: Staphylococcus aureus, SA1199B, 18 h
Description: as §1

[4] = tested on: S. epidermidis ATCC 12228; type: cell-based, Staphylococcus epidermidis; conditions: Staphylococcus epidermidis, ATCC12228, read after 18 hours, read-out: MIC
Description: as §1

[5] = tested on: S. epidermidis CIP 103627; type: cell-based, Staphylococcus epidermidis; conditions: Staphylococcus epidermidis, CIP103627, read after 18 hours, read-out: MIC
Description: as §1

S. epidermidis CIP 81.55 = type: cell-based, Staphylococcus epidermidis; conditions: Staphylococcus epidermidis, CIP81, read after 18 hours, read-out: MIC
Description: as §1

[6] = tested on: Acinetobacter baumanii ATCC 19606; type: cell-based; conditions: Acinetobacter baumannii, ATCC19606, read after 18 hours
Description: as §1

[7] = tested on: Bacillus subtilis CIP 5262; type: cell-based; conditions: CIP5262, read after 18 hours, read-out: MIC
Description: as §1

E. faecalis ATCC 29212 = type: cell-based; conditions: Enterococcus faecalis, ATCC29212, read after 18 hours, read-out: MIC
Description: as §1

E. faecium CIP 54.32 = type: cell-based; conditions: Enterococcus faecium, CIP54, read after 18 hours, read-out: MIC
Description: as §1

[8] = tested on: Enterobacter cloacae ATCC 13047; type: cell-based; conditions: ATCC13047, read after 18 hours
Description: as §1

[9] = tested on: Escherichia coli ATCC 25922; type: cell-based; conditions: ATCC25922, read after 18 hours
Description: as §1

[10] = tested on: Haemophilus influenzae ATCC 49766; type: cell-based; conditions: ATCC49766; Haemophilus influenzae ATCC 49766; read after 18 hours; read-out: MIC
Description: as §1

[11] = tested on: Klebsiella pneumoniae ATCC 35657; type: cell-based; conditions: ATCC35657, read after 18 hours, read-out: MIC
Description: as §1

[12] = tested on: Listeria innocua CIP 80.11; type: cell-based; conditions: CIP80, read after 18 hours, read-out: MIC
Description: as §1

[13] = tested on: Pseudomonas aeruginosa CIP 5933; type: cell-based; conditions: CIP5933, read after 18 hours
Description: as §1

[14] = tested on: S. agalactiae (group B) ATCC 12400; type: cell-based; conditions: Streptococcus agalactiae, ATCC12400, read after 18 hours, read-out: MIC
Description: as §1

S. aureus ATCC 25923 = type: cell-based; conditions: Staphylococcus aureus, ATCC25923, read after 18 hours
Description: as §1

S. mitis CIP 103335 = type: cell-based; conditions: Streptococcus mitis, CIP103335, read after 18 hours, read-out: MIC
Description: as §1

S. pneumoniae ATCC 49619 = type: cell-based; conditions: Streptococcus pneumoniae, ATCC49619, read after 18 hours
Description: as §1

[15] = tested on: S. pyogenes (group A) CIP 104226; type: cell-based; conditions: Streptococcus pyogenes, CIP104226, read after 18 hours, read-out: MIC
Description: as §1

[16] = tested on: Serratia marcescens CIP 103551; type: cell-based; conditions: CIP103551, read after 18 hours
Description: as §1

S. pneumoniae ATCC 6303 = type: cell-based, Streptococcus pneumoniae; conditions: Streptococcus pneumoniae, ATCC6303, read after 18 hours, read-out: MIC
Description: as §1

SMILES: O=C(C(=O)N1CCCCC1c1c[nH]c2ccc(Br)cc12)c1c[nH]c2ccc(Br)cc12 (stereo not shown) [Compound 6d, 1-(5-Bromo-1H-indol-3-yl)-2-(2-(5-bromo-1H-indol-3-yl)piperidin-1-yl)ethane-1,2-dione]
- MIC [1]: > 128 µg/mL
- MIC (S. aureus ATCC 29213): 2 to 4 µg/mL (≈ 3.78 to 7.56 µM)
- MIC [2]: > 128 µg/mL
- MIC (S. aureus ATCC 6538): > 128 µg/mL
- MIC (S. aureus ATCC 9144): > 128 µg/mL
- MIC (S. aureus CIP 103428): > 128 µg/mL
- MIC [3]: > 128 µg/mL
- MIC (S. aureus CIP 65.6): > 128 µg/mL
- MIC (S. aureus SA-1199B): > 128 µg/mL
- MIC [4]: > 128 µg/mL
- MIC [5]: > 128 µg/mL
- MIC (S. epidermidis CIP 81.55): > 128 µg/mL
- MIC [6]: > 128 µg/mL
- MIC [7]: > 128 µg/mL
- MIC (E. faecalis ATCC 29212): > 128 µg/mL
- MIC (E. faecium CIP 54.32): > 128 µg/mL
- MIC [8]: > 128 µg/mL
- MIC [9]: > 128 µg/mL
- MIC [10]: > 128 µg/mL
- MIC [11]: > 128 µg/mL
- MIC [12]: > 128 µg/mL
- MIC [13]: > 128 µg/mL
- MIC [14]: > 128 µg/mL
- MIC (S. aureus ATCC 25923): > 128 µg/mL
- MIC (S. mitis CIP 103335): > 128 µg/mL
- MIC (S. pneumoniae ATCC 49619): > 128 µg/mL
- MIC [15]: > 128 µg/mL
- MIC [16]: > 128 µg/mL
- MIC (S. pneumoniae ATCC 6303): > 128 µg/mL

SMILES: CC(C)(C)OC(=O)N1CCN(C(=O)C(=O)c2c[nH]c3ccc(Br)cc23)C(c2c[nH]c3ccc(Br)cc23)C1 (stereo not shown) [Compound 6f, tert-Butyl 3-(5-bromo-1H-indol-3-yl)-4-(2-(5-bromo-1H-indol-3-yl)-2-oxoacetyl) piperazine-1-carboxylate]
- MIC [1]: > 128 µg/mL
- MIC (S. aureus ATCC 29213): 2 to 4 µg/mL (≈ 3.17 to 6.35 µM)
- MIC [2]: > 128 µg/mL
- MIC (S. aureus ATCC 6538): > 128 µg/mL
- MIC (S. aureus ATCC 9144): > 128 µg/mL
- MIC (S. aureus CIP 103428): > 128 µg/mL
- MIC [3]: > 128 µg/mL
- MIC (S. aureus CIP 65.6): > 128 µg/mL
- MIC (S. aureus SA-1199B): > 128 µg/mL
- MIC [4]: > 128 µg/mL
- MIC [5]: > 128 µg/mL
- MIC (S. epidermidis CIP 81.55): > 128 µg/mL
- MIC [6]: > 128 µg/mL
- MIC [7]: > 128 µg/mL
- MIC (E. faecalis ATCC 29212): > 128 µg/mL
- MIC (E. faecium CIP 54.32): > 128 µg/mL
- MIC [8]: > 128 µg/mL
- MIC [9]: > 128 µg/mL
- MIC [10]: > 128 µg/mL
- MIC [11]: > 128 µg/mL
- MIC [12]: > 128 µg/mL
- MIC [13]: > 128 µg/mL
- MIC [14]: > 128 µg/mL
- MIC (S. aureus ATCC 25923): > 128 µg/mL
- MIC (S. mitis CIP 103335): > 128 µg/mL
- MIC (S. pneumoniae ATCC 49619): > 128 µg/mL
- MIC [15]: > 128 µg/mL
- MIC [16]: > 128 µg/mL
- MIC (S. pneumoniae ATCC 6303): > 128 µg/mL
